Assay results from patent US11198695B2, “Fused ring derivative having MGAT-2 inhibitory activity” (Shionogi & Co., Ltd., priority 2017, dated 2021).

Target: recombinant human MGAT2 (Homo sapiens (Human), UniProt Q3SYC2)
Assay: Measurement of human MGAT2 inhibitory activity
Type: biochemical
Settings: read-out: IC50 (concentration exhibiting 50% enzyme inhibition), Table 53
Method in brief: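 RapidFire ESI-MS read-out of the diolein/diolein-d5 peak ratio gave % inhibition, with no-enzyme and full-enzyme wells as 100% and 0%. Reactions ran 1 h at room temperature at pH 7.4 (phosphate, 2 mmol/L DTT), using Flag-tagged human MGAT2 membranes from Sf9 cells and a substrate solution of 30 μmol/L 2-oleoylglycerol and 10 μmol/L oleoyl-CoA.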

Sequence of recombinant human MGAT2 (Q3SYC2 whole entry): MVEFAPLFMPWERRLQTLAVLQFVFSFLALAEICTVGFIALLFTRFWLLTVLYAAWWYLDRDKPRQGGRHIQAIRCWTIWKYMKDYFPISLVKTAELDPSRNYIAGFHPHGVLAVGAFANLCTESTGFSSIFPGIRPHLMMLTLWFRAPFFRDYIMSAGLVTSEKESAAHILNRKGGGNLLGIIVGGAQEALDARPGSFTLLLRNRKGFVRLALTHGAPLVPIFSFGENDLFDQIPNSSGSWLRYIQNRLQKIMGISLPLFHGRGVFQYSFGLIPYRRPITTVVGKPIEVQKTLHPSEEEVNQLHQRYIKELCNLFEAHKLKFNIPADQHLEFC

| Compound | IC50 [nM] |
| --- | --- |
| N#Cc1ccc(-n2nc3c(c2C(=O)NCCC(F)(F)F)C(=O)N[C@@]2(CCc4cc(OCC(F)(F)F)ccc42)C3)nc1 [II-126] | 12.7 |
| N#Cc1ccc(-n2nc3c(c2C(=O)NCC(N)=O)C(=O)N[C@@]2(CCc4cc(OCC(F)(F)F)ccc42)C3)nc1 [II-127] | 39.2 |
| N#CCNC(=O)c1c2c(nn1-c1ccc(C#N)cn1)C[C@]1(CCc3cc(OCC(F)(F)F)ccc31)NC2=O [II-128] | 10.2 |
| N#Cc1ccc(-n2nc3c(c2C(=O)NCC(O)c2ccccn2)C(=O)N[C@@]2(CCc4cc(OCC(F)(F)F)ccc42)C3)nc1 (some centres unmarked) [II-129] | 202 |
| N#Cc1ccc(-n2nc3c(c2C(=O)N[C@H]2CC[C@H](O)CC2)C(=O)N[C@@]2(CCc4cc(OCC(F)(F)F)ccc42)C3)nc1 [II-130] | 130 |
| N#Cc1ccc(-n2nc3c(c2C(=O)NCC2(CO)CC2)C(=O)N[C@@]2(CCc4cc(OCC(F)(F)F)ccc42)C3)nc1 [II-131] | 5.79 |
| N#Cc1ccc(-n2nc3c(c2C(=O)NC2CCNC2=O)C(=O)N[C@@]2(CCc4cc(OCC(F)(F)F)ccc42)C3)nc1 (some centres unmarked) [II-132] | 193 |
| N#Cc1ccc(-n2nc3c(c2C(=O)N[C@H]2CC[C@@H](O)C2)C(=O)N[C@@]2(CCc4cc(OCC(F)(F)F)ccc42)C3)nc1 [II-133] | 188 |
| N#Cc1ccc(-n2nc3c(c2C(=O)NCCS(N)(=O)=O)C(=O)N[C@@]2(CCc4cc(OCC(F)(F)F)ccc42)C3)nc1 [II-134] | 17.2 |
| CC(C)(O)CNC(=O)c1c2c(nn1-c1ccc(C#N)cn1)C[C@]1(CCc3cc(OCC(F)(F)F)ccc31)NC2=O [II-135] | 60.6 |
| Cc1ccc(-n2nc3c(c2NC(=O)CS(C)(=O)=O)C(=O)N[C@@]2(CCc4cc(OCC(F)(F)F)ccc42)C3)cc1F [II-136] | 7.42 |
| Cc1ccc(-n2nc3c(c2NC(=O)CS(C)(=O)=O)C(=O)N[C@@]2(CCc4cc(OCC(F)(F)F)ccc42)C3)cn1 [II-138] | 45.7 |
| Cc1cnnc(-n2nc3c(c2NC(=O)CS(C)(=O)=O)C(=O)N[C@@]2(CCc4cc(OCC(F)(F)F)ccc42)C3)c1 [II-140] | 6.4 |
| CS(=O)(=O)CC(=O)Nc1c2c(nn1-c1ccc(OC(F)F)cc1)C[C@]1(CCc3cc(OCC(F)(F)F)ccc31)NC2=O [II-141] | 12.8 |
| CCOc1ccc2c(c1)OCC[C@]21Cc2nn(-c3ccc(C)cn3)c(NC(=O)CS(C)(=O)=O)c2C(=O)N1 [II-145] | 6.43 |
| Cc1cc(-n2nc3c(c2NC(=O)CS(C)(=O)=O)C(=O)N[C@@]2(CCc4cc(OCC(F)(F)F)ccc42)C3)ccc1C#N [II-148] | 12.3 |
| Cc1cc(-n2nc3c(c2NC(=O)CS(C)(=O)=O)C(=O)N[C@@]2(CCc4cc(OCC(F)(F)F)ccc42)C3)ccc1F [II-149] | 9.01 |
| Cc1ccc(-n2nc3c(c2NC(=O)CS(C)(=O)=O)C(=O)N[C@@]2(CCOc4cc(N5CC(F)(F)C5)ccc42)C3)nc1 [II-154] | 5.58 |
| Cc1ccc(-n2nc3c(c2NC(=O)CS(C)(=O)=O)C(=O)N[C@@]2(CCc4cc(OCC(F)F)ccc42)C3)nc1 [II-158] | 8.06 |
| CCOc1ccc2c(c1)CC[C@]21Cc2nn(-c3ccc(C)cn3)c(NC(=O)CS(C)(=O)=O)c2C(=O)N1 [II-159] | 7.02 |
| Cc1ccc(-n2nc3c(c2NC(=O)CS(C)(=O)=O)C(=O)N[C@@]2(CCc4cc(OC(C)C)ccc42)C3)nc1 [II-160] | 7.69 |
| Cc1ccc(-n2nc3c(c2NC(=O)CS(C)(=O)=O)C(=O)N[C@@](c2ccc(OCC(F)(F)F)cc2F)(C(F)(F)F)C3)nc1 [II-162] | 5.67 |

| Compound | IC50 [nM] |
| --- | --- |
| CS(=O)(=O)CC(=O)Nc1c2c(nn1-c1ccc(C#N)cn1)C[C@]1(CCc3c1ccc(OCC(F)(F)F)c3F)NC2=O [II-163] | 6.1 |
| Cc1ccc(-n2nc3c(c2NC(=O)CS(C)(=O)=O)C(=O)N[C@@]2(CCc4cc(Cl)ccc42)C3)nc1 [II-164] | 7.55 |
| Cc1ccc(-n2nc3c(c2NC(=O)CS(C)(=O)=O)C(=O)N[C@@]2(CCc4ccccc42)C3)nc1 [II-165] | 26.9 |
| CS(=O)(=O)CC(=O)Nc1c2c(nn1CCC1CC1)C[C@]1(CCc3c1ccc(OCC(F)(F)F)c3F)NC2=O [II-166] | 20.8 |
| Cc1cc(-n2nc3c(c2NC(=O)CS(C)(=O)=O)C(=O)N[C@@]2(CCc4cc(OCC(F)(F)F)ccc42)C3)on1 [II-169] | 7.38 |
| CNC(=O)c1c2c(nn1-c1ccc(C#N)cn1)C[C@]1(CCc3cc(OCC(F)(F)F)ccc31)NC2=O [II-170] | 46.7 |
| Cc1ccc(-n2nc3c(c2C(=O)NCCS(N)(=O)=O)C(=O)N[C@@]2(CCc4cc(OCC(F)(F)F)ccc42)C3)nc1 [II-171] | 9.64 |
| CS(=O)(=O)CC(=O)Nc1c2c(nn1-c1ccccc1)C[C@]1(CCc3cc(OCC(F)(F)F)ccc31)NC2=O [II-175] | 25.4 |
| Cc1ccc(-n2nc3c(c2NC(=O)CS(C)(=O)=O)C(=O)N[C@](C)(c2ccc(Cl)cc2F)C3)nc1 [II-176] | 8.32 |
| Cc1ccc(-n2nc3c(c2NC(=O)CS(C)(=O)=O)C(=O)N[C@](C)(c2ccc(N4CC(F)(F)C4)cc2F)C3)nc1 [II-177] | 5.86 |
| N#Cc1ccc(-n2nc3c(c2C(=O)NCCF)C(=O)N[C@@]2(CCc4cc(OCC(F)(F)F)ccc42)C3)nc1 [II-178] | 59.7 |
| N#Cc1ccc(-n2nc3c(c2C(=O)NCC2CC2)C(=O)N[C@@]2(CCc4cc(OCC(F)(F)F)ccc42)C3)nc1 [II-179] | 10.1 |
| N#Cc1ccc(-n2nc3c(c2C(=O)NCCO)C(=O)N[C@@]2(CCc4cc(OCC(F)(F)F)ccc42)C3)nc1 [II-180] | 58.5 |
| CNC(=O)CNC(=O)c1c2c(nn1-c1ccc(C#N)cn1)C[C@]1(CCc3cc(OCC(F)(F)F)ccc31)NC2=O [II-181] | 28.7 |
| CS(C)(=O)=NCCNC(=O)c1c2c(nn1-c1ccc(C#N)cn1)C[C@]1(CCc3cc(OCC(F)(F)F)ccc31)NC2=O [II-182] | 477 |
| N#CCCNC(=O)c1c2c(nn1-c1ccc(C#N)cn1)C[C@]1(CCc3cc(OCC(F)(F)F)ccc31)NC2=O [II-183] | 35.5 |
| N#Cc1ccc(-n2nc3c(c2C(=O)NCCSC(F)(F)F)C(=O)N[C@@]2(CCc4cc(OCC(F)(F)F)ccc42)C3)nc1 [II-185] | 28.2 |
| N#Cc1ccc(-n2nc3c(c2C(=O)NCC2CCO2)C(=O)N[C@@]2(CCc4cc(OCC(F)(F)F)ccc42)C3)nc1 (some centres unmarked) [II-187] | 24.5 |
| N#Cc1ccc(-n2nc3c(c2C(=O)NC2CC(F)(F)C2)C(=O)N[C@@]2(CCc4cc(OCC(F)(F)F)ccc42)C3)nc1 [II-188] | 5.01 |
| N#Cc1ccc(-n2nc3c(c2C(=O)NCC2(C#N)CC2)C(=O)N[C@@]2(CCc4cc(OCC(F)(F)F)ccc42)C3)nc1 [II-190] | 6.35 |
| N#Cc1ccc(-n2nc3c(c2C(=O)NCC2(C(F)(F)F)CC2)C(=O)N[C@@]2(CCc4cc(OCC(F)(F)F)ccc42)C3)nc1 [II-191] | 91.2 |
| CCO[C@H]1C[C@H](n2nc3c(c2NC(=O)CS(C)(=O)=O)C(=O)N[C@@]2(CCc4cc(OCC(F)(F)F)ccc42)C3)C1 [II-193] | 33.7 |

Continued, values first:

| IC50 [nM] | Compound |
| --- | --- |
| 4.79 | CS(=O)(=O)CC(=O)Nc1c2c(nn1-c1ccc(Cl)c(F)c1)C[C@]1(CCc3cc(OCC(F)(F)F)ccc31)NC2=O [II-137] |
| 3.15 | Cc1cc(-n2nc3c(c2NC(=O)CS(C)(=O)=O)C(=O)N[C@@]2(CCc4cc(OCC(F)(F)F)ccc42)C3)nnc1C [II-139] |
| 4.03 | CS(=O)(=O)CC(=O)Nc1c2c(nn1-c1ccc(C#N)cn1)C[C@]1(CCc3cc(C(F)(F)F)ccc31)NC2=O [II-142] |
| 0.706 | CS(=O)(=O)CC(=O)Nc1c2c(nn1-c1ccc(C#N)cn1)C[C@]1(CCc3cc(OCC(F)(F)F)ccc31)NC2=O [II-143] |
| 1.05 | CS(=O)(=O)CC(=O)Nc1c2c(nn1-c1ccc(C#N)cn1)C[C@]1(CCc3cc(OCC(F)(F)F)c(F)cc31)NC2=O [II-144] |
| 2.55 | Cc1ccc(-n2nc3c(c2NC(=O)CS(C)(=O)=O)C(=O)N[C@@]2(CCOc4cc(OCC(F)F)ccc42)C3)nc1 [II-146] |
| 4.92 | Cc1ccc(-n2nc3c(c2NC(=O)CS(C)(=O)=O)C(=O)N[C@@]2(CCOc4cc(Cl)ccc42)C3)nc1 [II-147] |
| 1.33 | Cc1cc(-n2nc3c(c2NC(=O)CS(C)(=O)=O)C(=O)N[C@@]2(CCOc4cc(OCC(F)(F)F)ccc42)C3)no1 [II-150] |
| 1.96 | CS(=O)(=O)CC(=O)Nc1c2c(nn1CCC1CC1)C[C@]1(CCc3cc(OCC(F)(F)F)c(F)cc31)NC2=O [II-152] |
| 4.94 | Cc1ccc(-n2nc3c(c2NC(=O)CS(C)(=O)=O)C(=O)N[C@@]2(CCOc4cc(OC(C)C)ccc42)C3)nc1 [II-153] |
| 3.6 | Cc1ccc(-n2nc3c(c2NC(=O)CS(C)(=O)=O)C(=O)N[C@@]2(CCc4cc(C5CC5)ccc42)C3)nc1 [II-156] |
| 3.83 | Cc1ccc(-n2nc3c(c2NC(=O)CS(C)(=O)=O)C(=O)N[C@@]2(CCc4cc(OCC(C)(F)F)ccc42)C3)nc1 [II-157] |
| 4.67 | Cc1ccc(-n2nc3c(c2NC(=O)CS(C)(=O)=O)C(=O)N[C@@]2(CCc4cc(OCC(C)(C)F)ccc42)C3)nc1 [II-161] |
| 3.63 | Cc1cc(-n2nc3c(c2NC(=O)CS(C)(=O)=O)C(=O)N[C@](C)(c2ccc(OCC(F)(F)F)cc2F)C3)no1 [II-167] |
| 1.46 | CS(=O)(=O)CC(=O)Nc1c2c(nn1-c1ccc(C#N)cn1)C[C@]1(CCc3cc(C4CC4)ccc31)NC2=O [II-172] |
| 1.34 | CS(=O)(=O)CC(=O)Nc1c2c(nn1CCCOC(F)F)C[C@]1(CCc3cc(OCC(F)(F)F)ccc31)NC2=O [II-173] |
| 4.06 | CC(F)(F)CNC(=O)c1c2c(nn1-c1ccc(C#N)cn1)C[C@]1(CCc3cc(OCC(F)(F)F)ccc31)NC2=O [II-184] |
| 2.92 | CC1(CNC(=O)c2c3c(nn2-c2ccc(C#N)cn2)C[C@]2(CCc4cc(OCC(F)(F)F)ccc42)NC3=O)COC1 [II-186] |
| 3.06 | N#Cc1ccc(-n2nc3c(c2C(=O)NC2CS(=O)(=O)C2)C(=O)N[C@@]2(CCc4cc(OCC(F)(F)F)ccc42)C3)nc1 [II-189] |
| 3.48 | N#Cc1ccc(-n2nc3c(c2C(=O)NCC2(C(F)F)CC2)C(=O)N[C@@]2(CCc4cc(OCC(F)(F)F)ccc42)C3)nc1 [II-192] |
| 1.55 | CS(=O)(=O)CC(=O)Nc1c2c(nn1CCCOC(F)F)C[C@@]1(CCc3cc(OCC(F)(F)F)ccc31)NC2=O [II-194] |
